{"source": "the supplement of paper PMC11208160"}
{"assay": "recombinant UMI read abundance after kanamycin selection (control-corrected) (log10(CPM+1)); higher = more efficient recombination; extreme values may be limits of the assay; sequences stand for … in AGTGCAGAGAAAATCGGCCAGTTTTCTCTGCCTGCAGTCCGCATGCCGTGGGACCCCTTGGGTTCTAACCTGTTGCCTAGATTTATGCAGCGGACTGCCTTTCTCCCAAAGTGATAAACCGG…AGGTTGGTTTCACT; site = the 11-nt donor", "summary_of_the_method": "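Counts of recombinant UMIs were reported as log10(CPM+1). Before that, they were converted to CPM, averaged over replicates and scaled using control-derived factors. They came from PCR across the donor–target junction after Escherichia coli carrying the pair library and target plasmid was plated on IPTG (0.07 mM) plus kanamycin, or unselected, in two replicates each.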"}
{"sequence": "GGATAGACATGGACCGGTTTTCCCGGTAATCCGTATTTGCC (site GGATATACTGG)", "recombinant UMI read abundance (log10)": 2.8}
{"sequence": "GGATAGACATGGACCGGTTTTCCCGGTAATCCGTATTTGCC (site GGATCGACTGG)", "recombinant UMI read abundance (log10)": 0}
{"sequence": "GGATAGACATGGACCGGTTTTCCCGGTAATCCGTATTTGCC (site GGATGGACTGG)", "recombinant UMI read abundance (log10)": 0}
{"sequence": "GGATAGACATGGACCGGTTTTCCCGGTAATCCGTATTTGCC (site GGATTGACTGG)", "recombinant UMI read abundance (log10)": 0}
{"sequence": "GGATAGACATGGACCGGTTTTCCCGGTAATCCGTATTTGCC (site GGCTAGACTGG)", "recombinant UMI read abundance (log10)": 1.03}
{"sequence": "GGATAGACATGGACCGGTTTTCCCGGTAATCCGTATTTGCC (site GGGTAGACTGG)", "recombinant UMI read abundance (log10)": 0.24}
{"sequence": "GGATAGACATGGACCGGTTTTCCCGGTAATCCGTATTTGCC (site GGTTAGACTGG)", "recombinant UMI read abundance (log10)": 1.09}
{"sequence": "GGATAGACATGGACCGGTTTTCCCGGTAATCCGTATTTGCC (site GTATAGACTGG)", "recombinant UMI read abundance (log10)": 1.89}
{"sequence": "GGATAGACATGGACCGGTTTTCCCGGTAATCCGTATTTGCC (site TGATAGACTGG)", "recombinant UMI read abundance (log10)": 2.09}
{"sequence": "GGATAGACATGGACCGGTTTTCCCGGTAATCCGTATTTGGC (site GGATAGACTGA)", "recombinant UMI read abundance (log10)": 1.7}
{"sequence": "GGATAGACATGGACCGGTTTTCCCGGTAATCCGTATTTGGC (site GGATAGACTGC)", "recombinant UMI read abundance (log10)": 2.35}
{"sequence": "GGATAGACATGGACCGGTTTTCCCGGTAATCCGTATTTGGC (site GGATAGACTGG)", "recombinant UMI read abundance (log10)": 0}
{"sequence": "GGATAGACATGGACCGGTTTTCCCGGTAATCCGTATTTGGC (site GGATAGACTGT)", "recombinant UMI read abundance (log10)": 2.32}
{"sequence": "GGATAGACATGGACCGGTTTTCCCGGTAATCCGTATTTGTC (site GGATAGACTGA)", "recombinant UMI read abundance (log10)": 3.09}
{"sequence": "GGATAGACATGGACCGGTTTTCCCGGTAATCCGTATTTGTC (site GGATAGACTGC)", "recombinant UMI read abundance (log10)": 0.855}
{"sequence": "GGATAGACATGGACCGGTTTTCCCGGTAATCCGTATTTGTC (site GGATAGACTGG)", "recombinant UMI read abundance (log10)": 2.1}
{"sequence": "GGATAGACATGGACCGGTTTTCCCGGTAATCCGTATTTGTC (site GGATAGACTGT)", "recombinant UMI read abundance (log10)": 1.81}
{"sequence": "GGATAGTCATGGACCGGTTTTCCCGGTAATCCGTATTTGCT (site GGATAGTCTAG)", "recombinant UMI read abundance (log10)": 3.17}
{"sequence": "GGATATACATGGACCGGTTTTCCCGGTAATCCGTATTTGAT (site GGATATACTAT)", "recombinant UMI read abundance (log10)": 2.03}
{"sequence": "GGATCGACATGGACCGGTTTTCCCGGTAATCCGTATTTGTA (site GGATCGACTTA)", "recombinant UMI read abundance (log10)": 0.775}
{"sequence": "GGATCGTCATGGACCGGTTTTCCCGGTAATCCGTATTTGCT (site CGATCATCTAG)", "recombinant UMI read abundance (log10)": 0.402}
{"sequence": "GGATCGTCATGGACCGGTTTTCCCGGTAATCCGTATTTGCT (site GGATCGTCTAG)", "recombinant UMI read abundance (log10)": 2.28}
{"sequence": "GGATGAACATGGACCGGTTTTCCCGGTAATCCGTATTTGTT (site GGATGAACTAA)", "recombinant UMI read abundance (log10)": 1.78}
{"sequence": "GGATTCACATGGACCGGTTTTCCCGGTAATCCGTATTTGTT (site GGATTCACTAA)", "recombinant UMI read abundance (log10)": 1.44}
{"sequence": "GGATTGGCATGGACCGGTTTTCCCGGTAATCCGTATTTGGT (site GGAATGGCTAC)", "recombinant UMI read abundance (log10)": 0.341}
{"sequence": "GGATTGGCATGGACCGGTTTTCCCGGTAATCCGTATTTGGT (site GGACTGGCTAC)", "recombinant UMI read abundance (log10)": 0.611}
{"sequence": "GGATTGGCATGGACCGGTTTTCCCGGTAATCCGTATTTGGT (site GGAGTGGCTAC)", "recombinant UMI read abundance (log10)": 0.0175}
{"sequence": "GGATTGGCATGGACCGGTTTTCCCGGTAATCCGTATTTGGT (site GGATTGGCTAC)", "recombinant UMI read abundance (log10)": 1.46}
{"sequence": "GGCAAACCATGGACCGGTTTTCCCGGTAATCCGTATTTGGT (site GACAAACCTAC)", "recombinant UMI read abundance (log10)": 0}
{"sequence": "GGCAAACCATGGACCGGTTTTCCCGGTAATCCGTATTTGGT (site GCCAAACCTAC)", "recombinant UMI read abundance (log10)": 0}
{"sequence": "GGCAAACCATGGACCGGTTTTCCCGGTAATCCGTATTTGGT (site GGCAAACCTAC)", "recombinant UMI read abundance (log10)": 0}
{"sequence": "GGCAAACCATGGACCGGTTTTCCCGGTAATCCGTATTTGGT (site GTCAAACCTAC)", "recombinant UMI read abundance (log10)": 0}
{"sequence": "GGCAACCCATGGACCGGTTTTCCCGGTAATCCGTATTTGAA (site GGCAAACCTTT)", "recombinant UMI read abundance (log10)": 0}
{"sequence": "GGCAACCCATGGACCGGTTTTCCCGGTAATCCGTATTTGAA (site GGCAACCCTTT)", "recombinant UMI read abundance (log10)": 0.0234}
{"sequence": "GGCAACCCATGGACCGGTTTTCCCGGTAATCCGTATTTGAA (site GGCAAGCCTTT)", "recombinant UMI read abundance (log10)": 0}
{"sequence": "GGCAACCCATGGACCGGTTTTCCCGGTAATCCGTATTTGAA (site GGCAATCCTTT)", "recombinant UMI read abundance (log10)": 0.00284}
{"sequence": "GGCAATCCATGGACCGGTTTTCCCGGTAATCCGTATTTGAT (site GGCAATCCTAT)", "recombinant UMI read abundance (log10)": 0.192}
{"sequence": "GGCAATCCATGGACCGGTTTTCCCGGTAATCCGTATTTGAT (site GGCAATCCTCT)", "recombinant UMI read abundance (log10)": 0.0105}
{"sequence": "GGCAATCCATGGACCGGTTTTCCCGGTAATCCGTATTTGAT (site GGCAATCCTGT)", "recombinant UMI read abundance (log10)": 0}
{"sequence": "GGCAATCCATGGACCGGTTTTCCCGGTAATCCGTATTTGAT (site GGCAATCCTTT)", "recombinant UMI read abundance (log10)": 0.00349}
{"sequence": "GGCAATCCATGGACCGGTTTTCCCGGTAATCCGTATTTGCA (site GGCAATCCTTA)", "recombinant UMI read abundance (log10)": 0.227}
{"sequence": "GGCAATCCATGGACCGGTTTTCCCGGTAATCCGTATTTGCA (site GGCAATCCTTC)", "recombinant UMI read abundance (log10)": 0.0145}
{"sequence": "GGCAATCCATGGACCGGTTTTCCCGGTAATCCGTATTTGCA (site GGCAATCCTTG)", "recombinant UMI read abundance (log10)": 0}
{"sequence": "GGCAATCCATGGACCGGTTTTCCCGGTAATCCGTATTTGCA (site GGCAATCCTTT)", "recombinant UMI read abundance (log10)": 0.0136}
{"sequence": "GGCAATTCATGGACCGGTTTTCCCGGTAATCCGTATTTGAA (site GGCAATACTTT)", "recombinant UMI read abundance (log10)": 0.0193}
{"sequence": "GGCAATTCATGGACCGGTTTTCCCGGTAATCCGTATTTGAA (site GGCAATCCTTT)", "recombinant UMI read abundance (log10)": 0.0153}
{"sequence": "GGCAATTCATGGACCGGTTTTCCCGGTAATCCGTATTTGAA (site GGCAATGCTTT)", "recombinant UMI read abundance (log10)": 0.0122}
{"sequence": "GGCAATTCATGGACCGGTTTTCCCGGTAATCCGTATTTGAA (site GGCAATTCTTT)", "recombinant UMI read abundance (log10)": 0.996}
{"sequence": "GGCAGAACATGGACCGGTTTTCCCGGTAATCCGTATTTGTG (site GGCAGAACTCA)", "recombinant UMI read abundance (log10)": 1.3}
{"sequence": "GGCAGCCCATGGACCGGTTTTCCCGGTAATCCGTATTTGAC (site GGCAGCCCTGT)", "recombinant UMI read abundance (log10)": 0}
{"sequence": "GGCAGCGCATGGACCGGTTTTCCCGGTAATCCGTATTTGCT (site GGCAGCGCTAG)", "recombinant UMI read abundance (log10)": 2.43}
{"sequence": "GGCAGTCCATGGACCGGTTTTCCCGGTAATCCGTATTTGAA (site GGCAATCCTTT)", "recombinant UMI read abundance (log10)": 0.00812}
{"sequence": "GGCAGTCCATGGACCGGTTTTCCCGGTAATCCGTATTTGAA (site GGCACTCCTTT)", "recombinant UMI read abundance (log10)": 0.018}
{"sequence": "GGCAGTCCATGGACCGGTTTTCCCGGTAATCCGTATTTGAA (site GGCAGTCCTTT)", "recombinant UMI read abundance (log10)": 0.191}
{"sequence": "GGCAGTCCATGGACCGGTTTTCCCGGTAATCCGTATTTGAA (site GGCATTCCTTT)", "recombinant UMI read abundance (log10)": 0}
{"sequence": "GGCAGTCCATGGACCGGTTTTCCCGGTAATCCGTATTTGGG (site GGCAGTCCTCC)", "recombinant UMI read abundance (log10)": 0.00418}
{"sequence": "GGCAGTGCATGGACCGGTTTTCCCGGTAATCCGTATTTGGA (site GGCAGTGCTTC)", "recombinant UMI read abundance (log10)": 0.329}
{"sequence": "GGCATTCCATGGACCGGTTTTCCCGGTAATCCGTATTTGAA (site GGCAATCCTTT)", "recombinant UMI read abundance (log10)": 0}
{"sequence": "GGCATTCCATGGACCGGTTTTCCCGGTAATCCGTATTTGAA (site GGCACTCCTTT)", "recombinant UMI read abundance (log10)": 0.0138}
{"sequence": "GGCATTCCATGGACCGGTTTTCCCGGTAATCCGTATTTGAA (site GGCAGTCCTTT)", "recombinant UMI read abundance (log10)": 0.00406}
{"sequence": "GGCATTCCATGGACCGGTTTTCCCGGTAATCCGTATTTGAA (site GGCATTCCTTT)", "recombinant UMI read abundance (log10)": 0.29}
{"sequence": "GGCATTGCATGGACCGGTTTTCCCGGTAATCCGTATTTGGT (site GGCATTGCTAC)", "recombinant UMI read abundance (log10)": 1.48}
{"sequence": "GGCATTTCATGGACCGGTTTTCCCGGTAATCCGTATTTGGG (site GGCATTTCTCC)", "recombinant UMI read abundance (log10)": 0}
{"sequence": "GGCCAGCCATGGACCGGTTTTCCCGGTAATCCGTATTTGTT (site GGCCAACCTAA)", "recombinant UMI read abundance (log10)": 0.00333}
{"sequence": "GGCCAGCCATGGACCGGTTTTCCCGGTAATCCGTATTTGTT (site GGCCACCCTAA)", "recombinant UMI read abundance (log10)": 0.0285}
{"sequence": "GGCCAGCCATGGACCGGTTTTCCCGGTAATCCGTATTTGTT (site GGCCAGCCTAA)", "recombinant UMI read abundance (log10)": 0.00292}
{"sequence": "GGCCAGCCATGGACCGGTTTTCCCGGTAATCCGTATTTGTT (site GGCCATCCTAA)", "recombinant UMI read abundance (log10)": 0}
{"sequence": "GGCCCGACATGGACCGGTTTTCCCGGTAATCCGTATTTGCT (site GGCCCGACTAG)", "recombinant UMI read abundance (log10)": 1.49}
{"sequence": "GGCCCTGCATGGACCGGTTTTCCCGGTAATCCGTATTTGTA (site GGCCCTGCTTA)", "recombinant UMI read abundance (log10)": 0.378}
{"sequence": "GGCGAACCATGGACCGGTTTTCCCGGTAATCCGTATTTGAA (site GGCGAACCTTT)", "recombinant UMI read abundance (log10)": 0}
{"sequence": "GGCGATTCATGGACCGGTTTTCCCGGTAATCCGTATTTGGC (site GGCGATTCTGC)", "recombinant UMI read abundance (log10)": 1.57}
{"sequence": "GGCGCAGCATGGACCGGTTTTCCCGGTAATCCGTATTTGGT (site GGCGCAGCTAC)", "recombinant UMI read abundance (log10)": 0.482}
{"sequence": "GGCGCGACATGGACCGGTTTTCCCGGTAATCCGTATTTGCC (site GGCGCGACTGG)", "recombinant UMI read abundance (log10)": 1.35}
{"sequence": "GGCGGCGCATGGACCGGTTTTCCCGGTAATCCGTATTTGTA (site GGCGGCGCTTA)", "recombinant UMI read abundance (log10)": 0.781}
{"sequence": "GGCTACCCATGGACCGGTTTTCCCGGTAATCCGTATTTGTT (site GGCAACCCTAA)", "recombinant UMI read abundance (log10)": 0.00887}
